Measured values taken from PubChem BioAssay (NCI).
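Each compound was tested at five concentrations against cells in 96-well plates for 48 hours. At the GI50, growth is halved. TGI is the concentration that stops growth completely.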

Assays:
Experiment in all cases: NCI tumour cell line growth inhibition, 48 h
MDA-N = tested on: MDA-N
P388/ADR leukemia = tested on: P388/ADR leukemia
DLD-1 colon = tested on: DLD-1 colon
KM20L2 colon = tested on: KM20L2 colon
SN12K1 renal = tested on: SN12K1 renal
P388 leukemia = tested on: P388 leukemia
XF 498 CNS = tested on: XF 498 CNS
HOP-18 NSCLC = tested on: HOP-18 NSCLC
DMS 273 small cell lung = tested on: DMS 273 small cell lung
DMS 114 small cell lung = tested on: DMS 114 small cell lung
RXF-631 renal = tested on: RXF-631 renal
SNB-78 CNS = tested on: SNB-78 CNS

Row | Compound | TGI (MDA-N) | TGI (DLD-1 colon) | TGI (KM20L2 colon) | TGI (XF 498 CNS) | TGI (HOP-18 NSCLC) | TGI (DMS 273 small cell lung) | TGI (DMS 114 small cell lung) | TGI (SNB-78 CNS) | also measured
1 | O=C(O)CN1C(=O)OC(c2ccccc2)C1=O (stereo not given) | > 100 µM |  |  |  |  |  |  |  | 
2 | O=C(CCN1CCCCC1)c1csc2ccccc12 | > 100 µM |  |  |  |  |  |  |  | 
3 | COc1cc(-c2oc3c(OC)c(O)c(OC)c(O)c3c(=O)c2OC)cc(OC)c1OC | > 100 µM |  |  |  |  |  |  |  | 
4 | CC(=O)OC1C(O)C(C)OC(OC2C(OC(=O)C3CCC4C(C3)OC3(CC(OC(=O)/C=C/c5ccccc5)C(C)CO3)C43CO3)OC(C)C(O)C2OC(C)=O)C1O (stereo not given) | 0.0182 µM | > 1.5 µM | 0.21 µM | 0.0896 µM | 0.413 µM | 0.111 µM | 0.0727 µM |  | TGI (P388/ADR leukemia): > 2.5 µM; TGI (SN12K1 renal): 0.0583 µM; TGI (P388 leukemia): 0.279 µM
5 | CCCCCc1cc(/C=C2/N=C(c3ccc[nH]3)C=C2OC)[nH]c1C | 0.155 µM |  |  |  |  |  |  |  | 
6 | O=C1CCc2cc(Br)ccc2O1 | > 100 µM |  |  |  |  |  |  |  | 
7 | CCCCCCCCCCCCC(O)C1CCC(C(O)CCCCC(O)CCCCCC2CC(CC(C)=O)C(=O)O2)O1 (stereo not given) | 4.81 µM | 21 µM | 19.7 µM | 8.44 µM | 23.3 µM | 13 µM | 7.78 µM | > 41 µM | TGI (RXF-631 renal): 16.7 µM
8 | CCOC(=O)CCc1c(C)c2c(OC)cc(OC)cc2oc1=O |  | > 100 µM | > 100 µM | 93.8 µM | 99 µM | > 100 µM |  | > 100 µM | 
9 | CCN(N=O)C1C2(CCCC2)NC(=O)C12CCCC2 (stereo not given) |  | > 100 µM | > 100 µM | > 100 µM | > 100 µM |  | > 100 µM | > 100 µM | TGI (RXF-631 renal): > 100 µM
10 | CC(=O)[O-].CC(=O)[O-].O=C([CH-]C(=O)c1ccccc1)c1ccccc1.[Nd+3].[OH3+] |  |  | > 100 µM |  |  |  |  |  | GI50 (KM20L2 colon): 30.5 µM
11 | O=C(O)C1=Cc2cccc3cccc(c23)C1=O |  | > 100 µM | > 100 µM |  | > 100 µM | > 100 µM | > 100 µM |  | 
12 | CC(=O)OC(C(=O)[O][Ge]([CH3])([CH3])[CH3])c1ccccc1 (stereo not given) |  | > 100 µM | > 100 µM |  | > 100 µM |  | > 100 µM | > 100 µM | GI50 (DLD-1 colon): > 100 µM; GI50 (KM20L2 colon): > 100 µM; GI50 (SNB-78 CNS): > 100 µM; GI50 (HOP-18 NSCLC): > 100 µM; GI50 (DMS 114 small cell lung): > 100 µM
13 | CC(=O)Oc1ccc2c(=O)c(C(C)=O)coc2c1 |  |  | > 100 µM | > 100 µM |  | > 100 µM |  | > 100 µM | 
14 | Cc1[nH]c(=O)n2c(C)nnc2c1C(=O)O |  | > 100 µM |  | > 100 µM |  |  | > 100 µM | > 100 µM | 
15 | COC(=O)c1cc(O)ccc1O |  |  |  | > 100 µM |  | > 100 µM | > 100 µM | > 100 µM | TGI (RXF-631 renal): > 100 µM
16 | COc1ccc(C2=C(c3ccccc3)C(=O)N3CCCC3C2)cc1 (stereo not given) | > 100 µM |  |  |  |  |  |  |  | GI50 (MDA-N): 0.441 µM
17 | CC[O-].CC[O-].O=C1C=C([O-])C(=O)c2ccccc21.O=C1C=C([O-])C(=O)c2ccccc21.[Ti+4] |  | > 100 µM | > 100 µM | > 100 µM | > 100 µM | > 100 µM |  |  | GI50 (DLD-1 colon): > 100 µM; GI50 (KM20L2 colon): 84.7 µM; GI50 (XF 498 CNS): > 100 µM; GI50 (HOP-18 NSCLC): > 100 µM; GI50 (DMS 273 small cell lung): > 63.5 µM
18 | CC(C)(C)N1CC1CNC(=O)C(=O)NCC1CN1C(C)(C)C (stereo not given) | > 92.9 µM |  | 5.96 µM | 1.31 µM |  | 0.517 µM | 2.49 µM |  | 
19 | CNC(=O)/C=C/C1=CN2C(=O)c3ccc(C)c(O)c3NC(OC)C2C1 (stereo not given) | < 0.0211 µM |  |  |  |  |  |  |  | 
20 | CC(=O)OCc1nnn2c1C(OC(C)=O)CC2 (stereo not given) |  | > 100 µM | > 100 µM | > 100 µM |  | > 100 µM | > 100 µM | > 100 µM | TGI (RXF-631 renal): > 100 µM
21 | CC1=C2CC[C@@]3(C)C(=CCC3O)C2(C)CCC1=O (stereo not given in full) |  | > 100 µM | > 100 µM |  | > 100 µM | > 100 µM | > 100 µM | > 100 µM | TGI (RXF-631 renal): > 100 µM
22 | CCOC(=O)C(C(=O)OCC)=C1C=C(c2ccccc2)c2ccccc21 |  | > 100 µM | > 100 µM | > 100 µM |  | > 100 µM | > 100 µM | > 100 µM | 
